A short description of series [1]: Pharmacokinetic test of Compound A or B given orally or intravenously to rats (plasma and liver). Type of series: in vivo. The following applies: administered orally or intravenously. The protocol: To address the above-mentioned problems, the inventors have conducted intensive researches on analogues of Birinapant in the hope of reducing the toxic and side effects on the circulating system while maintaining or improving the therapeutic effect. […] Under the same conditions as described above, after rats were orally or intravenously injected with a solution of Compound A or B, the concentrations of Compound A or B and drug Birinapant in rats were measured in plasma and liver, respectively. […] Therefore, such prodrugs would have no value of application for Birinapant.

A short description of series [2]: Pharmacokinetic study: Birinapant in plasma and liver after i.v. Birinapant or I-5-S in rats. The following applies: rat, in vivo; for half-life: Birinapant measured after i.v. Birinapant 5 mg/kg, rats. The protocol:
1. Formulation of preparation and dosing: An appropriate amount of the test sample was precisely weighed, and mixed with an appropriate volume of a solvent (5% DMSO/5% Solutol/90% water) to obtain a clear solution or a homogeneous suspension. The preparation was administered to animals within 4 hours after formulation. The dosage formulation would be administered […] in accordance with facility standard operating procedures. The dosage volume would be determined by the body weights of the animals collected on the morning of administering. 2. Blood collection: Blood (approx. 0.2 ml per point in time) would be drawn each time from the jugular vein of every animal. All blood samples would be transferred to pre-cooled commercial EDTA-K2 test tubes, and kept on wet ice until they were centrifuged. 3. Plasma processing: Blood samples would be centrifuged (3200 rpm, 10 min) at approximately 4° C. Plasma was collected separately and transferred to pre-labeled PP tubes in wet ice at each point in time, and then immediately precipitated by ACN (6 IS) (the ratio of plasma:ACN was 1:4). Centrifugation (10 min, 12,000 rpm) was carried out again to obtain a supernatant. The supernatant was quickly frozen on dry ice and kept at -70±10° C. before LC/MS/MS analysis. 4. Liver processing: Liver tissues were collected at each point in time, washed twice with pre-cooled deionized water, and dried with filter paper. Liver tissues were immediately homogenized with 10-times volume of a methanol-water solution (1:2, v/v). After homogenization, a portion of liver tissue homogenate (e.g., 200 μL of homogenate) was immediately measured. After precipitated on wet ice, the samples were centrifuged, and a supernatant was collected and stored in a refrigerator at -70±10° C. before LC-MS/MS analysis. From the remaining liver homogenate, 800 μL of the homogenate was measured as a spare. […] After the solution of compound Birinapant was intravenously injected into rats, the concentrations of the active compound Birinapant in the rats were determined in the plasma and liver, respectively (see Table 1). After the solution of compound […] was intravenously injected into rats, the concentrations of the active compound Birinapant in the rats were determined in the plasma and liver, respectively (see Table 2).

Series [3] deals with hepatitis B virus. Conditions: animal models; cited from earlier work.
The conditions of series [4]: cited from earlier work.
The test system of series [5] is hepatocellular carcinoma. The following applies: cited from earlier work.

Molecules are shown by their SMILES. Where “and” joins values, the source holds several entries; their conditions need not be identical. Equal entries are not always repeated. Entries after “also recorded” stand apart in the source; their conditions may differ.

In general, AUC(0-inf) refers to total exposure, with the tail of the curve extrapolated. As usually defined, the Cmax is the peak of the concentration-time curve. The Kp is tissue or fluid exposure divided by exposure in the circulation. Broadly, the Tmax is the time at which the peak concentration occurs. Usually Vd stands for a proportionality between amount in the body and measured concentration, not a real space. A high value points to extensive tissue distribution. By clearance is commonly meant the volume of plasma or blood freed of the substance per unit of time. The low end stands for inefficient removal, the high end for efficient removal. As a reminder, the AUC(0-t) is the area under the concentration-time curve up to a stated or last time point. For orientation: half-life means the time needed for the level to fall by half in the phase considered. A higher half-life goes with slow decline.

As for `CCCCCOC(=O)N(C)[C@@H](C)C(=O)N[C@@H](CC)C(=O)N1C[C@@H](O)C[C@H]1Cc1c(-c2[nH]c3cc(F)ccc3c2C[C@@H]2C[C@H](O)CN2C(=O)[C@H](CC)NC(=O)[C@H](C)N(C)C(=O)OCCCCC)[nH]c2cc(F)ccc12` [Compound B], in series [1], the “degradation by in vivo esterases to release the active drug Birinapant” value is listed as “have not been degraded at all; also recorded: could not be degraded by in vivo esterase at all”; the excreted and recovered is 100%.

Regarding `CC[C@H](NC(=O)[C@H](C)N(C)C(=O)OCc1ccccc1)C(=O)N1C[C@@H](O)C[C@H]1Cc1c(-c2[nH]c3cc(F)ccc3c2C[C@@H]2C[C@H](O)CN2C(=O)[C@H](CC)NC(=O)[C@H](C)N(C)C(=O)OCc2ccccc2)[nH]c2cc(F)ccc12` [Compound A], in series [1], the “degradation by in vivo esterases to release the active drug Birinapant” value is reported as “have not been degraded at all; also recorded: could not be degraded by in vivo esterase at all”; the excreted and recovered turned out to be 100%.

Consider `CC[C@H](NC(=O)[C@H](C)NC)C(=O)N1C[C@@H](OC(C)=O)C[C@H]1Cc1c(-c2[nH]c3cc(F)ccc3c2C[C@@H]2C[C@H](OC(C)=O)CN2C(=O)[C@H](CC)NC(=O)[C@H](C)NC)[nH]c2cc(F)ccc12` [Compound I-5-S], for which, in series [2], the “conversion of the prodrug into the active drug Birinapant” value was “metabolized into the active pharmaceutical ingredient Birinapant”. In series [2] (iv), the “reduction of the maximum concentration of Birinapant in the plasma in comparison to direct use of Birinapant” value is on record as 94%, the “reduction of total drug exposure in the plasma in comparison to direct use of Birinapant” value is reported as 49% and the “total exposure of Birinapant released in liver relative to direct use of Birinapant” value was 2.4 times. In addition, in series [2] (iv, 5.97 mg/kg), the “AUC Ratio (L/P)” value is 194.

As for `CC[C@H](NC(=O)[C@H](C)NC)C(=O)N1C[C@@H](O)C[C@H]1Cc1c(-c2[nH]c3cc(F)ccc3c2C[C@@H]2C[C@H](O)CN2C(=O)[C@H](CC)NC(=O)[C@H](C)NC)[nH]c2cc(F)ccc12` [Birinapant], in series [2] (iv), the C0 was found to be 3470 ng/mL. For the same compound, in series [2] (iv, 5 mg/kg), the AUC0-24 is 40566 ng·h/g, the AUC0-inf was 76641 ng·h/g, the AUC0-last was 66712 ng·h/g and the AUC(0-inf) turned out to be 1090 ng·h/mL. In series [2] (iv, 5 mg/kg), the C0 was found to be 3470 ng/mL; the Cmax was 3470 ng/mL and 4280 ng/g; the concentration ratio (Kp) is 64; the Tmax came to 0.25 h. In series [2] (iv, 5 mg/kg), this compound gave a distribution volume (Vd) of 36.3 L/kg and a clearance of 76.3 mL/min/kg. Further, in series [2] (iv, 5 mg/kg, AUC0-24), the AUC(0-t) was 967 ng·h/mL. The AUC(0-t) in series [2] (iv, 5 mg/kg, AUC0-last) stood at 1040 ng·h/mL. In addition, the half-life in series [2] (iv, 5 mg/kg, liver) was 22.9 h. The half-life in series [2] (iv, 5 mg/kg, plasma) was 14.6 h. In addition, the “inhibition of hepatitis B virus, particularly replication of HBsAg” value in series [3] is listed as “effective in inhibiting hepatitis B virus”. The “side effect in patients” value in series [4] (patients, high doses) is “paralysis of facial muscles”. Also, in series [4] (per week or twice weekly, cancer clinical trials), the safe dose was 17 mg/M2. Also, the “Dose Limited Toxicity” value in series [4] (twice weekly, limited by paralysis of facial muscles, cancer clinical trials) was 22 mg/M2. Further, the “survival in dosed mice” value in series [5] is “significantly prolonged”.
